Here are results for 18 molecules from patent US11925629B2, “Heterocyclic inhibitors of ERK1 and ERK2 and their use in the treatment of cancer” (Asana Biosciences, LLC, priority 2015, dated 2024).

One assay deals with T1, ERK1 (Homo sapiens, UniProt P27361).
T1 construct: purchased Jubilant Biosys
The assay is described as follows: ERK1 HTRF (biochemical) assay. The method, then: (§1) ERK1 and ERK2 HTRF (Biochemical) Assays
These assays employed a homogeneous time resolved fluorescence (HTRF) technique. […] The plate was incubated at room temperature for 60 min with shaking. […] The IC50 values (half maximal inhibitory concentration values) were subsequently determined using a sigmoidal dose-response curve (variable slope) in GraphPad Prism® 5 software.

The next assay concerns the target T2, ERK2 (Homo sapiens, UniProt P28482).
T2 construct: purchased Jubilant Biosys
Nature of the assay: ERK2 HTRF (biochemical) assay. The method, then: as §1
These assays employed a homogeneous time resolved fluorescence (HTRF) technique. The compounds were serially diluted by half-log with concentrations ranging from 0.0005 to 10 uM in the assay buffer (50 mM Tris pH=7.5, 1 mM EGTA, 2 mM DTT, 10 mM MgCl2, 0.100 Tween-20) and 20 uL of substrate-ATP mix [1 uM Biotin-LC-Myelin Basic Protein (MBP) derivatized Peptide (Anaspec)-24 uM ATP (Sigma)] was added to each well of the assay plate. Then 10 uL of enzyme mix [25 nM ERK1 or ERK2 (Jubilant Biosys) in assay buffer] was added to each well. The plate was incubated at room temperature for 60 min with shaking. The HTRF mix [625 nM LANCER Ultra Europium-anti-phospho-MBP (Perkin Elmer) and 2 nM Phycolink® Streptavidin-Allophycocyanin (SA-APC) (Prozyme) in HTRF buffer (50 mM Tris-HCl pH=7.5, 100 mM NaCl, 0.1% BSA, 0.05% Tween20, 0.5 mM EDTA)] was prepared and 75 uL of this mix was added to the HTRF plate. After incubation for 60 min at room temperature, 10 uL of the reaction mixture was transferred to the HTRF assay plate and incubated for 45 min at room temperature with shaking. Plate was read using Pherastar in HTRF mode (excitation 337 nm, emission 665 & 620 nm). The IC50 values (half maximal inhibitory concentration values) were subsequently determined using a sigmoidal dose-response curve (variable slope) in GraphPad Prism® 5 software.

Assay [1] relates to HT-29 (colorectal carcinoma, B-RafV600E) cells. The assay is described as follows: Cell proliferation (Alamar Blue) assay, HT-29. In kind it is cell-based, human. Particulars: Homo sapiens, HT-29, HT29 cells. Summed up: (§2)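 A 72 h exposure to compound (3-fold series, typically 0.0005 to 10 uM) of cells seeded at 5000/well precedes a 1-3 h Alamar Blue (1×) incubation. Growth inhibition is quantified by fluorescence and fitted to give IC50.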

Assay [2] has as its system HCT116 (colorectal carcinoma, K Ras G13D) cells. Nature of the assay: Cell proliferation (Alamar Blue) assay, HCT116. In kind it is cell-based, human. The procedure, abridged: as §2
The subject of assay [3] is phosphorylation of RSK1(S380) (the downstream target of ERK1/2). The assay is described as follows: Phospho-RSK1(S380) ELISA assay in HT-29 cells. In kind it is cell-based, human. Particulars: read-out: Mechanistic Cell Assay RSK1 Phos HT29 IC50. The procedure, abridged:
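IC50 values derive from a variable-slope sigmoidal fit of sandwich-ELISA signal (450 nm) for RSK1 Ser380 phosphorylation. The cells were B-RafV600E HT-29 colorectal line, exposed to serially diluted compound for 2 h after overnight seeding, then lysed at 4° C.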

The mark [4] stands for this setting: Homo sapiens, HCT-116, HCT116 cells.
[5] abbreviates: Homo sapiens, HT-29, HT29 cells, phospho-RSK1(S380).
The mark [6] stands for this setting: Homo sapiens, HT-29, HT29 cells.

pIC50: −log10 of the molar value. Counter-ions that a name gives are not always drawn. Like-named read-outs stand apart in the source and are kept apart here.

T1 sequence (P27361 whole entry): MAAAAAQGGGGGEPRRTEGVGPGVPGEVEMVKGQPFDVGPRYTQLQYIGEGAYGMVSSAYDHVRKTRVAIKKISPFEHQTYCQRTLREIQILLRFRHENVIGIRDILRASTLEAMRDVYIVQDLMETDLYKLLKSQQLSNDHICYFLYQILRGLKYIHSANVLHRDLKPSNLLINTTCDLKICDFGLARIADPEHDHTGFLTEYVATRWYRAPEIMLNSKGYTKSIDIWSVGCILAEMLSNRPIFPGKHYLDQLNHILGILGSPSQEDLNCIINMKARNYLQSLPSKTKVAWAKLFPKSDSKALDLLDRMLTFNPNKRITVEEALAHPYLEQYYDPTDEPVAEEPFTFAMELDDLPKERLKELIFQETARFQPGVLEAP
T2 sequence (P28482 whole entry): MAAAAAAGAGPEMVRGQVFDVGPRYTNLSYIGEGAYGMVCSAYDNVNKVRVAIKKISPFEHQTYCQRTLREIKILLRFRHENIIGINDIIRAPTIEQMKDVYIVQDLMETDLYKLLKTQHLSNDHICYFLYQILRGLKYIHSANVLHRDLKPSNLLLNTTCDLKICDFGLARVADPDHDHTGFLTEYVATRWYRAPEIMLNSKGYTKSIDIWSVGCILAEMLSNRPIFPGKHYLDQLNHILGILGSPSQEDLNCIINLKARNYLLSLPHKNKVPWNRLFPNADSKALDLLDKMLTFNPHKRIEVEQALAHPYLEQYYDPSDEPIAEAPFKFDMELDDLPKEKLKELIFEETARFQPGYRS

As for `Cc1cnc(NC2CC(F)(F)C2)nc1-n1cnc(C(=O)N[C@H](CN)c2cccc(Cl)c2)c1` [Compound #259, (S)—N-(2-Amino-1-(3-chlorophenyl)ethyl)-1-(2-((3,3-difluorocyclobutyl)amino)-5-methylpyrimidin-4-yl)-1H-imidazole-4-carboxamide], the pIC50 is above 7.30 against ERK1 (HTRF biochemical assay); at least 7.30 at ERK2 (HTRF biochemical assay); 6.60 to 7.00 in assay [1]; at least 7.00 in assay [2] (setting [4]); 6.60 to 7.00 in assay [3] (setting [5]).
On to `Cc1cnc(NC2CCOCC2)nc1-n1cnc(C(=O)N[C@H](CN)c2cc(F)cc(Cl)c2)c1` [Compound #275, (S)—N-(2-Amino-1-(3-chloro-5-fluorophenyl)ethyl)-1-(5-methyl-2-((tetrahydro-2H-pyran-4-yl)amino)pyrimidin-4-yl)-1H-imidazole-4-carboxamide], for which the pIC50 is above 7.30 against ERK1 (HTRF biochemical assay); at least 7.30 against ERK2 (HTRF biochemical assay); at least 7.00 in assay [1]; at least 7.00 in assay [2] (setting [4]); at least 7.00 in assay [3] (setting [5]).
For the molecule `Cc1cnc(NC2CCOCC2)nc1-n1cnc(C(=O)NCc2cc(F)cc(Cl)c2CO)c1` [Compound #297, N-(3-Chloro-5-fluoro-2-(hydroxymethyl)benzyl)-1-(5-methyl-2-((tetrahydro-2H-pyran-4-yl)amino)pyrimidin-4-yl)-1H-imidazole-4-carboxamide], the pIC50 at ERK1 (HTRF biochemical assay) was above 7.30; against ERK2 (HTRF biochemical assay) it was at least 7.30; in assay [1], at least 7.00; in assay [2] (setting [4]) it was 6.60 to 7.00; in assay [3] (setting [5]), 6.30 to 6.60.
Regarding `Cc1cnc(NC2CCOCC2)nc1-n1cnc(C(=O)N[C@H](CN)c2cccc(Cl)c2)c1` [Compound #298, (S)—N-(2-Amino-1-(3-chlorophenyl)ethyl)-1-(5-methyl-2-((tetrahydro-2H-pyran-4-yl)amino)pyrimidin-4-yl)-1H-imidazole-4-carboxamide hydrochloride salt], the pIC50 against ERK1 (HTRF biochemical assay) is above 7.30; on ERK2 (HTRF biochemical assay), at least 7.30.
On to `Cc1cnc(Nc2ccc3c(c2)OC(F)(F)O3)cc1-n1cnc(C(=O)NC(CO)c2ccccc2)c1` (stereo not drawn) [Example 86, 1-(2-((2,2-difluoro-benzo[d][1,3]dioxol-5-yl)-amino)-5-methyl-pyridin-4-yl)-N-(2-hydroxy-1-phenyl-ethyl)-1H-imidazole-4-carboxamide], for which the pIC50 at ERK1 (HTRF biochemical assay) is 7.00 to 7.30; on ERK2 (HTRF biochemical assay) it was 7.00 to 7.30; in assay [1] it was below 5.60; in assay [2] (setting [4]), below 5.60.
For `Cc1cnc(Nc2ccccn2)cc1-n1ccc(C(=O)NC(CO)c2ccccc2)c1` (stereo not drawn) [Example 149, N-(2-hydroxy-1-phenylethyl)-1-(5-methyl-2-(pyridin-2-ylamino)pyridin-4-yl)-1H-pyrrole-3-carboxamide], the pIC50 is 7.00 to 7.30 at ERK1 (HTRF biochemical assay); at least 7.30 against ERK2 (HTRF biochemical assay); below 5.60 in assay [1]; below 5.60 in assay [2] (setting [4]); below 5.60 in assay [3] (setting [5]).
Take `Cc1cnc(NC2CCOCC2)nc1-n1cnc(C(=O)NC(CN)c2cc(F)cc(Cl)c2)c1` (stereo not drawn) [Example 236, N-(2-amino-1-(3-chloro-5-fluorophenyl)ethyl)-1-(5-methyl-2-((tetrahydro-2H-pyran-4-yl)amino)pyrimidin-4-yl)-1H-imidazole-4-carboxamide]: the pIC50 against ERK1 (HTRF biochemical assay) was above 7.30; on ERK2 (HTRF biochemical assay) it was at least 7.30; in assay [1] it was at least 7.00; in assay [2] (setting [4]), at least 7.00; in assay [3] (setting [5]), at least 7.00.
For the molecule `Cc1cccc(CNC(=O)c2cn(-c3nc(NC4CCOCC4)ncc3C)cn2)n1` [Example 279, 1-(5-methyl-2-((tetrahydro-2H-pyran-4-yl)amino)pyrimidin-4-yl)-N-((6-methylpyridin-2-yl)methyl)-1H-imidazole-4-carboxamide], the pIC50 against ERK1 (HTRF biochemical assay) was above 7.30; at ERK2 (HTRF biochemical assay), at least 7.30; in assay [2] (setting [4]), 5.60 to 6.30; in assay [3] (setting [5]), 6.60 to 7.00.
For the molecule `Cc1cnc(N[C@H]2CCOC2)nc1-n1cnc(C(=O)NC(CN)c2cc(F)cc(Cl)c2)c1` (stereo partly drawn) [Example 282, N-(2-amino-1-(3-chloro-5-fluorophenyl)ethyl)-1-(5-methyl-2-(((S)-tetrahydrofuran-3-yl)amino)pyrimidin-4-yl)-1H-imidazole-4-carboxamide], the pIC50 against ERK1 (HTRF biochemical assay) was above 7.30; at ERK2 (HTRF biochemical assay), at least 7.30; in assay [1] it was at least 7.00; in assay [2] (setting [4]), at least 7.00; in assay [3] (setting [5]) it was at least 7.00.
Consider `Cc1cnc(NC2CCOCC2)nc1-n1cnc(C(=O)N[C@H](CNCC2CC2)c2cccc(Cl)c2)c1` [Example 339, 1-[5-Methyl-2-(tetrahydro-pyran-4-ylamino)-pyrimidin-4-yl]-1H-imidazole-4-carboxylic acid [(S)-1-(3-chloro-phenyl)-2-(cyclopropylmethyl-amino)-ethyl]-amide], for which the pIC50 in assay [1], in assay [2] (setting [4]) and in assay [3] (setting [6]) was at least 7.00 in each case.
`CC(=O)OCc1c(Cl)cccc1CNC(=O)c1cn(-c2nc(NC3CCOCC3)ncc2C)cn1` [Example 340, 2-chloro-6-((1-(5-methyl-2-((tetrahydro-2H-pyran-4-yl)amino)pyrimidin-4-yl)-1H-imidazole-4-carboxamido)methyl)benzyl acetate]: the pIC50 in assay [1], in assay [2] (setting [4]) and in assay [3] (setting [6]) was at least 7.00 in each case.
With `Cc1cnc(NC2CCOCC2)nc1-n1cnc(C(=O)NC(C)(C)c2cccc(Cl)c2CO)c1` [Example 341, N-(2-(3-chloro-2-(hydroxymethyl)phenyl)propan-2-yl)-1-(5-methyl-2-((tetrahydro-2H-pyran-4-yl)amino)pyrimidin-4-yl)-1H-imidazole-4-], the pIC50 is 5.60 to 6.30 in assay [1], 5.60 to 6.30 in assay [2] (setting [4]) and 6.30 to 6.60 in assay [3] (setting [6]).
Take `CC(=O)OCc1c(Cl)cccc1CNC(=O)c1cn(-c2nc(N[C@H]3CCOC3)ncc2C)cn1` [Example 342, (S)-2-chloro-6-((1-(5-methyl-2-((tetrahydrofuran-3-yl)amino)pyrimidin-4-yl)-1H-imidazole-4-carboxamido)-methyl)benzyl acetate]: the pIC50 in assay [1] is at least 7.00; in assay [2] (setting [4]), at least 7.00; in assay [3] (setting [6]), 6.60 to 7.00.
With `Cc1cnc(NC2CCOCC2)nc1-n1cnc(C(=O)NCc2ccc(Cl)cc2CO)c1` [Example 343, N-(4-chloro-2-hydroxymethylbenzyl)-1-(5-methyl-2-((tetrahydro-2H-pyran-4-yl)amino)-pyrimidin-4-yl)-1H-imidazole-4-carboxamide], the pIC50 in assay [1] was 6.30 to 6.60; in assay [2] (setting [4]) it was 6.30 to 6.60; in assay [3] (setting [6]), 6.60 to 7.00.
Regarding `CNCCNC[C@@H](NC(=O)c1cn(-c2nc(NC3CCOCC3)ncc2C)cn1)c1cccc(Cl)c1` [Example 345], the results for the pIC50 in assay [1], in assay [2] (setting [4]) and in assay [3] (setting [6]) were 5.60 to 6.30, 5.60 to 6.30 and below 5.60, respectively.
Turning to `CCC(=O)OCc1c(Cl)cccc1CNC(=O)c1cn(-c2nc(N[C@H]3CCOC3)ncc2C)cn1` [Example 346, (S)-2-chloro-6-((1-(5-methyl-2-((tetrahydrofuran-3-yl)amino)pyrimidin-4-yl)-1H-imidazole-4-carboxamido)-methyl)benzyl-propionate], the pIC50 against ERK1 (HTRF) is 7.00 to 7.30; against ERK2 (HTRF), at least 7.30.
Turning to `Cc1cnc(N[C@H]2CCOC2)nc1-n1cnc(C(=O)NC(C)(C)c2cccc(Cl)c2CO)c1` [Example 347, (S)-N-(2-(3-chloro-2-(hydroxymethyl)-phenyl)propan-2-yl)-1-(5-methyl-2-((tetrahydrofuran-3-yl)amino)pyrimidin-4-yl)-1H-imidazole-4-carboxamide], the figures for the pIC50 on ERK1 (HTRF) and against ERK2 (HTRF) were 6.30 to 7.00 and 7.00 to 7.30, respectively.
“N-(1-(3-chlorophenyl)-2-hydroxypropyl)-1-(5-methyl-2-((tetrahydro-2H-pyran-4-yl)amino)pyrimidin-4-yl)-1H-imidazole-4-carboxamide (isomer #1) [Example 253]”: the pIC50 against ERK1 (HTRF biochemical assay) was above 7.30; against ERK2 (HTRF biochemical assay) it was at least 7.30; in assay [2] (HCT116 cells), below 5.60; in assay [3] (HT29 cells, phospho-RSK1(S380)), 5.60 to 6.30.
